Experimental data as given in paper PMC3558931 (Chemistry & biology, 2013).

Tested on: methyltransferase NcpB
Assay: NcpB O-methyltransferase enzyme assay
Details: with NcpB and SAM

Molecule: Cc1cc(O)cc(=O)o1
- substrate of NcpB (O-methylation): not substrates

Molecule: Cc1cc(O)c(C)c(=O)o1 [4-hydroxy-3,6-dimethyl-2-pyrone]
- substrate of NcpB (O-methylation): not substrates

Molecule: germicidin A
- substrate of NcpB (O-methylation): not substrates
